≈ marks a conversion by molar mass, not a printed value. Where two headings read alike, the source gives them in different places. Where only a bound is given, the exact number is not on record here.

Assay in all cases: Antibacterial activity, minimum inhibition concentration (MIC)
Type in all cases: cell-based

For assay [1], the system named is Staphylococcus aureus MS 353. As to conditions: for MIC: Staphylococcus aureus; for minimum inhibition concentration (MIC): Table 1. As for the experimental part:
(§1) Antibacterial activities of the compounds according to this invention, which had been prepared in the preceding Examples, were measured according to the method prescribed by The Committee of Amendment of "The method for measurement of the minimum inhibition concentration", The Chemotherapy Association, Japan (See Chemotherapy, Vol. 29, No. 1, pp. 76 ~ 79 (1981)).
(§2) The test results are shown in terms of the minimum inhibition concentration (MIC) (unit: µg/mℓ) in the following Tables 1 to 4.

In assay [2] the test system is Proteus morganii IFO 3848. Conditions: for MIC: Morganella morganii; for minimum inhibition concentration (MIC): Table 1. On the procedure:
as §1, §2

Assay [3] concerns Salmonella typhimurium IID-971. Conditions: for MIC: Salmonella enterica, read-out: minimum inhibition concentration (MIC). As for the experimental part: as §1, §2
[4] abbreviates: MS353, Table 1, Staphylococcus aureus MS 353, read-out: minimum inhibition concentration (MIC).
Setting [5] is: IFO3848, Table 1, Proteus morganii IFO 3848, read-out: minimum inhibition concentration (MIC).
Setting [6] is: Table 1, Salmonella typhimurium IID-971.

Turning to `Cc1nnc(SCC2=C(C(=O)O)N3C(=O)C(NC(=O)C(=CCl)c4csc(N)n4)C3SC2)s1` (single isomer, unassigned) [Example 1, sodium 7-[2-chloromethylene-2-(2-aminothiazol-4-yl)acetamido]-3-(2-methyl-l,3,4-thiadiazol-5-yl)thiomethyl-3-cephem-4-carboxylate], the MIC in assay [1] (setting [4]) was 0.1 µg/mL; in assay [2] (setting [5]) it was not above 0.006 µg/mL; in assay [3] (setting [6]) it was not above 0.006 µg/mL.
Regarding `CC1=C(C(=O)O)N2C(=O)C(NC(=O)C(=CCl)c3csc(N)n3)C2SC1` (single isomer, unassigned) [Example 2, sodium 7-[2-chloromethylene-2-(2-aminothiazol-4-yl)acetamido]desacetoxy-cephalosporanate], the MIC was 6.25 µg/mL in assay [1] (setting [4]), 0.0125 µg/mL in assay [2] (setting [5]) and 0.0125 µg/mL in assay [3] (setting [6]).
As to `Nc1nc(C(=CCl)C(=O)NC2C(=O)N3C(C(=O)[O-])=C(CSc4nncs4)CS[C@H]23)cs1.[Na+]` (single isomer, unassigned) [Example 3, sodium 7-[2-chloromethylene-2-(2-aminothiazol-4-yl)acetamido]-3-(1,3,4-thiadiazol-5-yl)thiomethyl-3-cephem-4-carboxylate], the MIC in assay [1] (MS353, read-out: minimum inhibition concentration (MIC)) was 0.1 µg/mL; in assay [2] (IFO3848, read-out: minimum inhibition concentration (MIC)), not above 0.006 µg/mL; in assay [3], not above 0.006 µg/mL.
For `Cn1nc(O)c(=O)nc1SCC1=C(C(=O)O)N2C(=O)C(NC(=O)C(=CCl)c3csc(N)n3)C2SC1` (single isomer, unassigned) [Example 4, disodium 7-[2-chloromethylene-2-(2-aminothiazol-4-yl)acetamido]-3-(2,5-dihydro-6-hydroxy-2-methyl-5-oxo-as-triazin-3-yl)thiomethyl-3-cephem-4-carboxylate], the MIC in assay [1] (setting [4]) was 0.78 µg/mL; in assay [2] (setting [5]), not above 0.006 µg/mL; in assay [3] (setting [6]), not above 0.006 µg/mL.
For the molecule `Cn1nnnc1SCC1=C(C(=O)O)N2C(=O)C(NC(=O)C(=CCl)c3ccccc3)C2SC1` (single isomer, unassigned) [Example 5, 7-(2-chloromethylenephenylacetamido)-3-(1-methyl-lH-tetrazol-5-yl)thiomethyl-3-cephem-4-carboxylic acid], the “minimum inhibition concentration (MIC)” value was determined as 0.05 µg/mL (≈ 0.101 µM) in assay [1] (Staphylococcus aureus MS 353) and 0.78 µg/mL (≈ 1.58 µM) in assay [2] (Proteus morganii IFO 3848). Moreover, the MIC in assay [3] (setting [6]) came out at 0.78 µg/mL (≈ 1.58 µM).
As for `Cn1nnnc1SCC1=C(C(=O)O)N2C(=O)C(NC(=O)C(=CCl)c3ccccc3)C2SC1` (single isomer, unassigned) [Example 6, 7-(2-chloromethylenephenylacetamido)-3-(l-methyl-lH-tetrazol-5-yl)thiomethyl-3-cephem-4-carboxylic acid], the “minimum inhibition concentration (MIC)” value in assay [1] (Staphylococcus aureus MS 353) is 0.78 µg/mL (≈ 1.58 µM); in assay [2] (Proteus morganii IFO 3848) it was 6.25 µg/mL (≈ 12.7 µM); in assay [3] (setting [6]), 1.56 µg/mL (≈ 3.16 µM).
On the same counts, the results for `Cn1nnnc1SCC1=C(C(=O)O)N2C(=O)C(NC(=O)C(=CC#N)c3csc(NC=O)n3)[C@H]2SC1` (single isomer, unassigned) [Example 13, 7-[2-Cyanomethylene-2-(2-formylaminothiazol-4-yl)acetamido]-3-(1-methyl-1H-tetrazol-5-yl)thiomethyl-3-cephem-4-carboxylic acid] are 50 µg/mL (≈ 93.7 µM), 50 µg/mL (≈ 93.7 µM) and 25 µg/mL (≈ 46.9 µM).
As for `Cl.Cn1nnnc1SCC1=C(C(=O)O)N2C(=O)C(NC(=O)C(=CC#N)c3csc(N)n3)[C@H]2SC1` (single isomer, unassigned) [Example 14, 7-[2-Cyanomethylene-2-(2-aminothiazol-4-yl)acetamido]-3-(1-methyl-1H-tetrazol-5-yl)thiomethyl-3-cephem-4-carboxylic acid hydrochloride salt], the MIC came to 100 µg/mL in assay [1] (setting [4]), 0.39 µg/mL in assay [2] (setting [5]) and 0.39 µg/mL in assay [3] (setting [6]).
`Cn1nnnc1SCC1=C(C(=O)O)N2C(=O)C(NC(=O)C(=CC#N)c3csc(NC=O)n3)[C@H]2SC1` (single isomer, unassigned) [Example 15, 7-[2-Cyanomethylene-2-(2-formylaminothiazol-4-yl)acetamido]-3-(1-methyl-1H-tetrazol-5-yl)thiomethyl-3-cephem-4-carboxylic acid]: the “minimum inhibition concentration (MIC)” value in assay [1] (Staphylococcus aureus MS 353) came to 1.56 µg/mL (≈ 2.92 µM); in assay [2] (Proteus morganii IFO 3848), 0.39 µg/mL (≈ 0.731 µM); in assay [3] (setting [6]), 0.05 µg/mL (≈ 0.0937 µM).
Take `Cn1nnnc1SCC1=C(C(=O)O)N2C(=O)C(NC(=O)C(=CC#N)c3csc(N)n3)C2SC1` (single isomer, unassigned) [Example 16, 7-[2-Cyanomethylene-2-(2-aminothiazol-4-yl)acetamido]-3-(l-methyl-lH-tetrazol-5-yl)thiomethyl-3-cephem-4-carboxylic acid]: the MIC in assay [1] (setting [4]) is 0.78 µg/mL (≈ 1.54 µM); in assay [2] (setting [5]), not above 0.006 µg/mL; in assay [3] (setting [6]), not above 0.006 µg/mL.
On to `COC(=N)C=C(C(=O)NC1C(=O)N2C(C(=O)O)=C(CSc3nnnn3C)CSC12)c1csc(N)n1` (single isomer, unassigned) [Example 17, 7-[2-(o-methylcarboxyimidoylmethylene)-2-(2-aminothiazol-4-yl)acetamido]-3-(1-methyl-1H-tetrazol-5-yl)thiomethyl-3-cephem-4-carboxylic acid], for which the MIC in assay [1] (setting [4]) is 3.12 µg/mL (≈ 5.81 µM); in assay [2] (setting [5]) it was not above 0.006 µg/mL; in assay [3] (setting [6]), 0.0125 µg/mL (≈ 0.0233 µM).
On the same counts, the results for `Cn1nnnc1SCC1=C(C(=O)O)N2C(=O)C(NC(=O)C(=CC(N)=O)c3csc(N)n3)C2SC1` (single isomer, unassigned) [Example 18, 7-[2-Carbamoylmethylene-2-(2-aminothiazol-4-yl)acetamido]-3-(1-methyl-lH-tetrazol-5-yl)thiomethyl-3-cephem-4-carboxylic acid] are 12.5 µg/mL (≈ 23.9 µM), not above 0.006 µg/mL and 0.1 µg/mL (≈ 0.191 µM).
With `Nc1nc(C(=CCl)C(=O)NC2C(=O)N3C(C(=O)O)=C(CSc4nnnn4CC(=O)O)CS[C@H]23)cs1` (single isomer, unassigned) [Example 19, 7-[2-Chloromethylene-2-(2-aminothiazol-4-yl)acetamido]-3-(1-carboxymethyl-1H-tetrazol-5-yl)thiomethyl-3-cephem-4-carboxylic acid], the results for the MIC in assay [1] (setting [4]), in assay [2] (setting [5]) and in assay [3] (setting [6]) were 1.56 µg/mL (≈ 2.79 µM), not above 0.006 µg/mL and not above 0.006 µg/mL, respectively.
With `CSc1nnc(SCC2=C(C(=O)O)N3C(=O)C(NC(=O)C(=CCl)c4csc(N)n4)C3SC2)s1` (single isomer, unassigned) [Example 20, 7-[2-chloromethylene-2-(2-aminothiazol-4-yl)acetamido]-3-(2-methylthio-l,3,4-thiadiazol-5-yl)thiomethyl-3-cephem-4-carboxylic acid], the MIC in assay [1] (setting [4]) is 0.1 µg/mL (≈ 0.178 µM); in assay [2] (setting [5]), not above 0.006 µg/mL; in assay [3] (setting [6]), not above 0.006 µg/mL.
Take `CC(=O)OCC1=C(C(=O)O)N2C(=O)C(NC(=O)C(=CCl)c3cnc(N)s3)C2SC1` (stereo not shown) [Example 8, sodium 7-[2-chloromethylene-2-(2-aminothiazol-5-yl)acetamido]-cephalosporanate]: the MIC in assay [1] (setting [4]) was 0.78 µg/mL; in assay [3] (setting [6]), 25 µg/mL.
`Cn1nnnc1SCC1=C(C(=O)O)N2C(=O)C(NC(=O)C(=CCl)Sc3cnc(N)s3)C2SC1` (stereo not shown) [Example 9, sodium 7-[2-chloromethylene-3-(2-aminothiazol-5-yl)mercaptoacetamido]-3-(1-methyl-1H-tetrazol-5-yl)thiomethyl-3-cephem-4-carboxylate]: the MIC was determined as 3.12 µg/mL in assay [1] (setting [4]) and 25 µg/mL in assay [3] (setting [6]).

For the origin of these results see patent EP0082498A2, “Beta-lactam compounds and process for the preparation thereof” (SAGAMI CHEMICAL RESEARCH CENTER, priority 1981, dated 1983).
